Results published in patent US11292821B2, “Peptides and combination of peptides for use in immunotherapy against lung cancer, including NSCLC, SCLC and other cancers” (Immatics Biotechnologies GmbH, priority 2017, dated 2022).

How the values were obtained:
HLA-B*08 = assay: MHC binding assay (UV-ligand exchange, β2m ELISA); design: species or system human
CD8+ T cells = assay: In vitro T-cell priming assay with aAPCs (in vitro immunogenicity for MHC class I presented peptides); assay type: cell-based, human; settings: in vitro immunogenicity
HLA-A*03 = HLA-A*03 (Homo sapiens, UniProt P04439); assay: MHC binding assay (UV-ligand exchange, β2m ELISA)
HLA-A*02 = HLA-A*02 (Homo sapiens, UniProt P04439, D140Y/D185E/D98H/E176V/E277Q/G131W/G231S/I119V/I121R/I166T/I218V/N151K/N90K/P208A/P217A/Q86G/Q94H/R138H/R169H); assay: MHC binding assay (UV-ligand exchange, β2m ELISA)

Row | Substance | Peptide exchange (peptide exchange yield, MHC class I binding score) (HLA-B*08) | Wells positive [%] (CD8+ T cells; HLA B*08) | Peptide exchange (peptide exchange yield, MHC class I binding score) (HLA-A*03) | other results
1 | 314 (AIISRLVAL; listed as Homo sapiens) [compound 314] | “++++” (>75% = ++++) | “++” (20%-49% = ++) | – | –
2 | 210 (ATSGVPVYK; listed as Homo sapiens) [compound 210] | – | – | “++++” (>75% = ++++) | Wells positive [%] (CD8+ T cells; HLA A*03): “++++” (>=70% = ++++)
3 | 303 (LPFPKFTV; listed as Homo sapiens) [compound 303] | “++++” (>75% = ++++) | “++” (20%-49% = ++) | – | –
4 | 299 (MAQFKEISL; listed as Homo sapiens) [compound 299] | “++++” (>75% = ++++) | “++++” (>=70% = ++++) | – | –
5 | 453 (AINTSIKNK; listed as Homo sapiens) [compound 453] | – | – | “++++” (>75% = ++++) | –
6 | 307 (ILLPRTVSL; listed as Homo sapiens) [compound 307] | “++++” (>75% = ++++) | “+” (<20% = +) | – | –
7 | 457 (SINKPTSER; listed as Homo sapiens) [compound 457] | – | – | “++++” (>75% = ++++) | –
8 | 298 (FNKRKPLSL; listed as Homo sapiens) [compound 298] | “+++” (>50 = +++) | “+” (<20% = +) | – | –
9 | 456 (SMFTAILKK; listed as Homo sapiens) [compound 456] | – | – | “++++” (>75% = ++++) | –
10 | 297 (RAQLKLVAL; listed as Homo sapiens) [compound 297] | “++++” (>75% = ++++) | “+” (<20% = +) | – | –
11 | 211 (TVNPVAIHK; listed as Homo sapiens) [compound 211] | – | – | “++++” (>75% = ++++) | –
12 | 305 (ALKLRVAVL; listed as Homo sapiens) [compound 305] | “++++” (>75% = ++++) | “+” (<20% = +) | – | –
13 | 308 (MLKQKVEEL; listed as Homo sapiens) [compound 308] | “++++” (>75% = ++++) | “+” (<20% = +) | – | –
14 | 315 (DIYQRALNL; listed as Homo sapiens) [compound 315] | “++++” (>75% = ++++) | “+” (<20% = +) | – | –
15 | 205 (SLDGAARPK; listed as Homo sapiens) [compound 205] | – | – | “++++” (>75% = ++++) | Wells positive [%] (CD8+ T cells; HLA A*03): “++” (20%-49% = ++)
16 | 306 (ILKVKVGL; listed as Homo sapiens) [compound 306] | “++++” (>75% = ++++) | “+” (<20% = +) | – | –
17 | 302 (HLLQKQTSI; listed as Homo sapiens) [compound 302] | “+++” (>50 = +++) | – | – | –
18 | 209 (RTQIPMSEK; listed as Homo sapiens) [compound 209] | – | – | “++++” (>75% = ++++) | Wells positive [%] (CD8+ T cells; HLA A*03): “+” (<20% = +)
19 | 204 (AVFDKFIRY; listed as Homo sapiens) [compound 204] | – | – | “++++” (>75% = ++++) | –
20 | 207 (RSFNGLLTMY; listed as Homo sapiens) [compound 207] | – | – | “++++” (>75% = ++++) | –
21 | 318 (EAAIRSVEL; listed as Homo sapiens) [compound 318] | “++++” (>75% = ++++) | “++” (20%-49% = ++) | – | –
22 | 218 (KTLVAELLILK; listed as Homo sapiens) [compound 218] | – | – | “+++” (>50 = +++) | Wells positive [%] (CD8+ T cells; HLA A*03): “+” (<20% = +)
23 | 202 (KLAELEGALQK; listed as Homo sapiens) [compound 202] | – | – | “++++” (>75% = ++++) | –
24 | 455 (RIADIFVKK; listed as Homo sapiens) [compound 455] | – | – | “++++” (>75% = ++++) | –
25 | 454 (KVYTPSISK; listed as Homo sapiens) [compound 454] | – | – | “++++” (>75% = ++++) | –

Row | Substance | Peptide exchange (peptide exchange yield, MHC class I binding score) (HLA-B*08) | Wells positive [%] (CD8+ T cells; HLA B*08) | Peptide exchange (peptide exchange yield, MHC class I binding score) (HLA-A*03) | other results
26 | 203 (KVKDTPGLGK; listed as Homo sapiens) [compound 203] | – | – | “++++” (>75% = ++++) | –
27 | 212 (KAYEQVMHY; listed as Homo sapiens) [compound 212] | – | – | “++++” (>75% = ++++) | –
28 | 312 (EAMLRNKEL; listed as Homo sapiens) [compound 312] | “++++” (>75% = ++++) | “+” (<20% = +) | – | –
29 | 296 (MPMQDIKM; listed as Homo sapiens) [compound 296] | “++++” (>75% = ++++) | – | – | –
30 | 311 (EIRIRVVQM; listed as Homo sapiens) [compound 311] | “++++” (>75% = ++++) | “+” (<20% = +) | – | –
31 | 216 (KLYAWELAF; listed as Homo sapiens) [compound 216] | – | – | “+++” (>50 = +++) | –
32 | 304 (ELKKLYCQI; listed as Homo sapiens) [compound 304] | “++++” (>75% = ++++) | – | – | –
33 | 208 (GLASRILDAK; listed as Homo sapiens) [compound 208] | – | – | “++++” (>75% = ++++) | Wells positive [%] (CD8+ T cells; HLA A*03): “+” (<20% = +)
34 | 458 (GIADFVLKY; listed as Homo sapiens) [compound 458] | – | – | “++++” (>75% = ++++) | –
35 | 219 (RLRSSLVFK; listed as Homo sapiens) [compound 219] | – | – | “++++” (>75% = ++++) | –
36 | 217 (RILNQILYY; listed as Homo sapiens) [compound 217] | – | – | “++++” (>75% = ++++) | –
37 | 316 (VIKEKALTL; listed as Homo sapiens) [compound 316] | “+++” (>50 = +++) | “+” (<20% = +) | – | –
38 | 313 (ELKKKEYEEL; listed as Homo sapiens) [compound 313] | “++++” (>75% = ++++) | “+” (<20% = +) | – | –
39 | 310 (LPPKKFVL; listed as Homo sapiens) [compound 310] | “++++” (>75% = ++++) | – | – | –
40 | 131 (LLKEFVQRV; listed as Homo sapiens) [compound 131] | – | – | – | Peptide exchange (peptide exchange yield, MHC class I binding score) (HLA-A*02): “++++” (>75% = ++++); Wells positive [%] (CD8+ T cells; HLA A*02): “++++” (>=70% = ++++)
41 | 215 (MMFSGPQILKL; listed as Homo sapiens) [compound 215] | – | – | “++++” (>75% = ++++) | –
42 | 206 (KLIDLSQVMY; listed as Homo sapiens) [compound 206] | – | – | “++++” (>75% = ++++) | –
43 | 96 (HLVGGLHTV; listed as Homo sapiens) [compound 96] | – | – | – | Peptide exchange (peptide exchange yield, MHC class I binding score) (HLA-A*02): “++++” (>75% = ++++); Wells positive [%] (CD8+ T cells; HLA A*02): “+++” (50%-69% = +++)
44 | 317 (LVKVKVLL; listed as Homo sapiens) [compound 317] | “++++” (>75% = ++++) | – | – | –
45 | 214 (RTMSEAALVRK; listed as Homo sapiens) [compound 214] | – | – | “++++” (>75% = ++++) | Wells positive [%] (CD8+ T cells; HLA A*03): “+” (<20% = +)
46 | 94 (VLPDIETLIGV; listed as Homo sapiens) [compound 94] | – | – | – | Peptide exchange (peptide exchange yield, MHC class I binding score) (HLA-A*02): “++++” (>75% = ++++); Wells positive [%] (CD8+ T cells; HLA A*02): “+++” (50%-69% = +++)
47 | 309 (DAIQRKYSC; listed as Homo sapiens) [compound 309] | “+++” (>50 = +++) | – | – | –
48 | 301 (YMHKLLVL; listed as Homo sapiens) [compound 301] | “++++” (>75% = ++++) | – | – | –
49 | 132 (ALWLVDPLTV; listed as Homo sapiens) [compound 132] | – | – | – | Peptide exchange (peptide exchange yield, MHC class I binding score) (HLA-A*02): “++++” (>75% = ++++); Wells positive [%] (CD8+ T cells; HLA A*02): “+++” (50%-69% = +++)
50 | 300 (VASPKHCVL; listed as Homo sapiens) [compound 300] | “+++” (>50 = +++) | “+” (<20% = +) | – | –
